Here are results for 14 molecules from US8871753B2, “Macrocyclic compounds and their use as kinase inhibitors” (Incyte Corporation, priority 2008, dated 2014).

Broadly, the IC50 is the point on the concentration scale where inhibition reaches its midpoint.

What all share (format): biochemical
The target in assay [1] is T1, human JAK1 (a.a. 837-1142) (Homo sapiens, UniProt P23458).
T1 construct: human JAK1 (a.a. 837-1142); His tag (N); made in house; host or cells: insect cells (baculovirus)
Nature of the assay: In vitro JAK kinase assay (HTRF, phosphorylation of a biotinylated peptide), JAK1. To be noted: method AA1 (90 μM ATP) or AA2 (1000 μM ATP), not stated per value; read-out: JAK1 IC50. The method, boiled down:
(§1)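 Phosphorylation of a biotinylated peptide by the JAK kinase domain, detected by HTRF with Eu-Py20 and SA-APC. ATP was 90 μM for JAK1, 30 μM for JAK2 and 3 μM for JAK3. Reactions ran 1 h at room temperature and were stopped with EDTA, followed by 40 min antibody binding.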

Assay [2] addresses T2, human JAK2 (a.a. 828-1132) (Homo sapiens, UniProt O60674).
T2 construct: JAK2 (a.a. 828-1132); His tag (N); made in house; host or cells: insect cells (baculovirus)
Nature of the assay: In vitro JAK kinase assay (HTRF, phosphorylation of a biotinylated peptide), JAK2. Conditions: method AA1 (30 μM ATP) or AA2 (1000 μM ATP), not stated per value. The method, boiled down: as §1
On the technique in general: Time-resolved FRET reads energy transfer from a long-lived donor to a nearby acceptor.

Assay [3] deals with T3, human JAK3 (a.a. 781-1124) (Homo sapiens, UniProt P52333).
T3 construct: JAK3 (a.a. 781-1124); His tag (N); made in house; host or cells: insect cells (baculovirus)
T3 sequence (P52333 781-1124): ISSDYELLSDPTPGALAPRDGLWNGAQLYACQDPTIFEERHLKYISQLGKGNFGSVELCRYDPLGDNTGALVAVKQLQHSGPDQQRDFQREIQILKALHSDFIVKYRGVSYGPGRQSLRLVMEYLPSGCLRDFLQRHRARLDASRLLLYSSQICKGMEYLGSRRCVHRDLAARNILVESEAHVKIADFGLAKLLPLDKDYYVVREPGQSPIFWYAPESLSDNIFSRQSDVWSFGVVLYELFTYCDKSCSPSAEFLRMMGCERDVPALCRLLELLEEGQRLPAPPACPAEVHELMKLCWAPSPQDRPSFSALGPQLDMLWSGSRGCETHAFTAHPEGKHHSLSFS
Nature of the assay: In vitro JAK kinase assay (HTRF, phosphorylation of a biotinylated peptide), JAK3. Conditions: method AA1 (3 μM ATP) or AA2 (1000 μM ATP), not stated per value. Put shortly:
as §1

The target in the next assay is TYK2 (Homo sapiens, UniProt P29597). Kind of assay: TYK2 kinase inhibition (Table A1).
TYK2, sequence (P29597 whole entry): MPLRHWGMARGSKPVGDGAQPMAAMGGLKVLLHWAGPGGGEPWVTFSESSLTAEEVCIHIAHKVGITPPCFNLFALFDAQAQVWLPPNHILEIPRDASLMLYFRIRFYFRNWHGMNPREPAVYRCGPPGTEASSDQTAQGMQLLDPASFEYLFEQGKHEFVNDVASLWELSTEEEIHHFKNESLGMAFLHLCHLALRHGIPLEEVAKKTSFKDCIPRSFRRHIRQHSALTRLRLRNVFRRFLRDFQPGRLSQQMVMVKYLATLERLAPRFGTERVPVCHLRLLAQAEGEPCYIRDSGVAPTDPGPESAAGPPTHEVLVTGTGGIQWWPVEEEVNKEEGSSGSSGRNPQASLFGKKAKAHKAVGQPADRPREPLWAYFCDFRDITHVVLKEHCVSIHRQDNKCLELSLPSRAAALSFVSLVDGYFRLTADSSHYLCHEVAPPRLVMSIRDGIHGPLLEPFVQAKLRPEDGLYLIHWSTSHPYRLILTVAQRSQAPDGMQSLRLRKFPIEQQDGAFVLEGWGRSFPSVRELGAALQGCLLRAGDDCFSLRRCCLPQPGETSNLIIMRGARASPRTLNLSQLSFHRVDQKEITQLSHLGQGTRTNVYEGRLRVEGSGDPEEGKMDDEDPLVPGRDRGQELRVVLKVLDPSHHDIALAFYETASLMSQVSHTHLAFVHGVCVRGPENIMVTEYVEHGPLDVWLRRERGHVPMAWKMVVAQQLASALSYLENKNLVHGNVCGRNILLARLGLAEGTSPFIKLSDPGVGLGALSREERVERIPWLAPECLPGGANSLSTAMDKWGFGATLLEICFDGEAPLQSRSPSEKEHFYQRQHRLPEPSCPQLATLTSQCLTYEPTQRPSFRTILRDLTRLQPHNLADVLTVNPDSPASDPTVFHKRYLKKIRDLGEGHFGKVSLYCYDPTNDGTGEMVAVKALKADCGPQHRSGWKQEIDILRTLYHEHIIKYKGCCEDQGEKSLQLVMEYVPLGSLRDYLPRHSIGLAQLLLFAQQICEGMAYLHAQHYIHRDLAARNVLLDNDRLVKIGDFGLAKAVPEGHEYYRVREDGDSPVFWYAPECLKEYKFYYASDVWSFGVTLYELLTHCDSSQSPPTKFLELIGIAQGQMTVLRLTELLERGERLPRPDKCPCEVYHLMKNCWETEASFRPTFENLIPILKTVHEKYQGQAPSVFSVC
Assay [4] deals with T4, Recombinant Human Anaplastic Lymphoma Kinase (Homo sapiens, UniProt Q9UM73).
T4 construct: purchased Invitrogen, Carlsbad, Calif
T4 sequence (Q9UM73 19-1620): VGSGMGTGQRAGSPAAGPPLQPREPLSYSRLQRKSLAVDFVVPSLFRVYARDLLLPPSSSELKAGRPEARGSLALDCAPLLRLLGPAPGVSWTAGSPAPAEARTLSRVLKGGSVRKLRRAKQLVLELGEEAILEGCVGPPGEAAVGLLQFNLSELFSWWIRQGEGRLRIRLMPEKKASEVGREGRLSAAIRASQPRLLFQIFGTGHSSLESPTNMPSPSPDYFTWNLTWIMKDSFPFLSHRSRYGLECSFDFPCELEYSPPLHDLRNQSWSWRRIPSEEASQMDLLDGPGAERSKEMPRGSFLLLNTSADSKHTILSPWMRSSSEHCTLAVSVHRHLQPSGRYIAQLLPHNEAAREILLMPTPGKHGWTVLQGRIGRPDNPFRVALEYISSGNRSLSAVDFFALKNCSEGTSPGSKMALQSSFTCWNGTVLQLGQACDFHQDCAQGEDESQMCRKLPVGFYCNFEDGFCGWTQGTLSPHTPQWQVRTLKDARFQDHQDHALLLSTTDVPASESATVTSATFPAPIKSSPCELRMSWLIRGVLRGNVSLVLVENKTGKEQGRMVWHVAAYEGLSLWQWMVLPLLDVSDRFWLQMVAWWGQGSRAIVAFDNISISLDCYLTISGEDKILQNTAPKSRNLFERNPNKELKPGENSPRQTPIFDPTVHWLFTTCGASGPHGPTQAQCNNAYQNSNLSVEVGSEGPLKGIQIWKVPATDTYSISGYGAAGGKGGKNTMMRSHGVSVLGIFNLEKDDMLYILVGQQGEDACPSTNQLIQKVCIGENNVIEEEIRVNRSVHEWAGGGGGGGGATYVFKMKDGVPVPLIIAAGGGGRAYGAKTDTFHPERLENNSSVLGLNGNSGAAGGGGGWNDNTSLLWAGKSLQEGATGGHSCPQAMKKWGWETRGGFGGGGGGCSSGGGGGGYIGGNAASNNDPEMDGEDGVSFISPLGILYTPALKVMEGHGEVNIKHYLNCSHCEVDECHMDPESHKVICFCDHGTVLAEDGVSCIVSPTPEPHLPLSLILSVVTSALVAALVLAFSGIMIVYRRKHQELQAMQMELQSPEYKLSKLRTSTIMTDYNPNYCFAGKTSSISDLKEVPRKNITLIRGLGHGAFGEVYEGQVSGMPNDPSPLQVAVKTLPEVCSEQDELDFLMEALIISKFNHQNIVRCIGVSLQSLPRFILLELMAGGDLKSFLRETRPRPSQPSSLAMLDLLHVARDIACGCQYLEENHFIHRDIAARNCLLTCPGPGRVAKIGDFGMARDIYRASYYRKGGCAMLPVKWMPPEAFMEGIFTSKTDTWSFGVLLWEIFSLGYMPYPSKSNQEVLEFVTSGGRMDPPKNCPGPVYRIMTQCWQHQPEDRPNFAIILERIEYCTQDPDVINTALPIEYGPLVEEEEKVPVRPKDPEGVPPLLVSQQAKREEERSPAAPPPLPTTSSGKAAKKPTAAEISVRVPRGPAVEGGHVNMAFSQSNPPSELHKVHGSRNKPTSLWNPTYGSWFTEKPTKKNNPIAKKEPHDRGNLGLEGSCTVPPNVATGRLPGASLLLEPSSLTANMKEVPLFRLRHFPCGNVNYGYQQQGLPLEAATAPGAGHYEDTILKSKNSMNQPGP
Nature of the assay: ALK HTRF kinase assay. To be noted: compound at 500 nM or 1 mM; 90 μM ATP. The method, boiled down: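 TR-FRET read-out (Eu anti-pTyr antibody + streptavidin-APC) of biotin-peptide phosphorylation by recombinant human enzyme; IC50 by sigmoidal fit with top/bottom baselines and Hill slope.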

T2 sequence (O60674 828-1132): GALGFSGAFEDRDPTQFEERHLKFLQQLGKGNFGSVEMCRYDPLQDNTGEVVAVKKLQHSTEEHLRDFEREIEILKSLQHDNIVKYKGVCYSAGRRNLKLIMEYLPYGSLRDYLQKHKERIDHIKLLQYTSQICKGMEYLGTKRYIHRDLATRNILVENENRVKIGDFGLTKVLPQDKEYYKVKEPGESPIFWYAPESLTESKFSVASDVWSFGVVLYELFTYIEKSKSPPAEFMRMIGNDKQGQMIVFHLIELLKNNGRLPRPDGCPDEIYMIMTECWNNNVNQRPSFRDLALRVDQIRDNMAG
T1 sequence (P23458 849-1154): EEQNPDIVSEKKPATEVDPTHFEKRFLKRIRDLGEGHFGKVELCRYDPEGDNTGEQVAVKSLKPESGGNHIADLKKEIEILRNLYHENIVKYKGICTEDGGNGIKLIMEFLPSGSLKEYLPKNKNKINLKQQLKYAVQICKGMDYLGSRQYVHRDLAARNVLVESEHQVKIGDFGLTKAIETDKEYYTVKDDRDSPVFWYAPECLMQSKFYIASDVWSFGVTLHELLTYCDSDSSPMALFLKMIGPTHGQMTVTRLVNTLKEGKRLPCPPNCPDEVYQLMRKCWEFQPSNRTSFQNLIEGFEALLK

On to `O=C(CC1CCN(c2cnccn2)CC1)Nc1ccc2cc1CCc1cncc(c1)Nc1ncc(Cl)c(n1)N2` [Example A171, N-[6-Chloro-2,4,8,18,22-pentaazatetracyclo[14.3.1.1(3,7).1(9,13)]docosa-1(20),3(22),4,6,9(21),10,12,16,18-nonaen-12-yl]-2-(1-pyrazin-2-ylpiperidin-4-yl)acetamide tris(trifluoroacetate)], for which the 50% inhibitory concentration (IC50) in assay [1] was 12 nM; in assay [2], 118 nM; in assay [3] it was over 1000 nM; against TYK2, 300 nM. Besides, the “ALK % of inhibition at a concentration of 500 nM or 1 mM” value (from here on “ALK % of inhibition”) in assay [4] came to 29%.

`O=C(CC1CCN(c2ncccn2)CC1)Nc1ccc2cc1CCc1cncc(c1)Nc1ncc(Cl)c(n1)N2` [Example A172, N-[6-Chloro-2,4,8,18,22-pentaazatetracyclo[14.3.1.1(3,7).1(9,13)]docosa-1(20),3(22),4,6,9(21),10,12,16,18-nonaen-12-yl]-2-(1-pyrimidin-2-ylpiperidin-4-yl)acetamide tris(trifluoroacetate)]: the IC50 in assay [1] is 11 nM; in assay [2], 199 nM; in assay [3], over 1000 nM; on TYK2, 237 nM. Moreover, the “ALK % of inhibition” value in assay [4] worked out at 28%.

As to `Cc1ccc(N2CCC(CC(=O)Nc3ccc4cc3CCc3cncc(c3)Nc3ncc(Cl)c(n3)N4)CC2)nn1` [Example A173, N-[6-Chloro-2,4,8,18,22-pentaazatetracyclo[14.3.1.1(3,7).1(9,13)]docosa-1(20),3(22),4,6,9(21),10,12,16,18-nonaen-12-yl]-2-[1-(6-methylpyridazin-3-yl)piperidin-4-yl]acetamide tris(trifluoroacetate)], the half-maximal inhibitory concentration (IC50) in assay [1] was 8 nM; in assay [2] it was 89 nM; in assay [3], over 1000 nM; against TYK2, 105 nM. For the same molecule, the “ALK % of inhibition” value in assay [4] came to 40%.

Consider `O=C(CC1CCN(c2nncs2)CC1)Nc1ccc2cc1CCc1cncc(c1)Nc1ncc(Cl)c(n1)N2` [Example A174, tris(trifluoroacetate)], for which the IC50 was 4.1 nM in assay [1], 124 nM in assay [2], over 1000 nM in assay [3] and 72 nM against TYK2. The “ALK % of inhibition” value in assay [4] is recorded as 33%.

For `Cc1cc(C(=O)N2CCC(CC(=O)Nc3ccc4cc3CCc3cccc(c3)Nc3ncc(Cl)c(n3)N4)CC2)n[nH]1` [Example A175, N-[6-Chloro-2,4,8,22-tetraazatetracyclo[14.3.1.1(3,7).1(9,13)]docosa-1(20),3(22),4,6,9(21),10,12,16,18-nonaen-12-yl]-2-{1-[(5-methyl-1H-pyrazol-3-yl)carbonyl]piperidin-4-yl}acetamide bis(trifluoroacetate)], the IC50 is 1 nM in assay [1], 13 nM in assay [2], over 200 nM in assay [3] and 1.8 nM against TYK2. In assay [4], the “ALK % of inhibition” value was 28%.

Take `Cc1ccnc(N2CCC(CC(=O)Nc3ccc4cc3CCc3cncc(c3)Nc3ncc(Cl)c(n3)N4)CC2)c1` [Example A176, N-[6-Chloro-2,4,8,18,22-pentaazatetracyclo[14.3.1.1(3,7).1(9,13)]docosa-1(20),3(22),4,6,9(21),10,12,16,18-nonaen-12-yl]-2-[1-(4-methylpyridin-2-yl)piperidin-4-yl]acetamide tris(trifluoroacetate)]: the IC50 is 51 nM in assay [1], over 200 nM in assay [2], over 200 nM in assay [3] and over 200 nM on TYK2. Besides, the “ALK % of inhibition” value in assay [4] is listed as 25%.

With `N#Cc1cccnc1N1CCC(CC(=O)Nc2ccc3cc2CCc2cncc(c2)Nc2ncc(Cl)c(n2)N3)CC1` [Example A177, N-[6-Chloro-2,4,8,18,22-pentaazatetracyclo[14.3.1.1(3,7).1(9,13)]docosa-1(20),3(22),4,6,9(21),10,12,16,18-nonaen-12-yl]-2-[1-(3-cyanopyridin-2-yl)piperidin-4-yl]acetamide tris(trifluoroacetate)], the IC50 in assay [1] is 14 nM; in assay [2], 95 nM; in assay [3], over 200 nM; against TYK2, over 200 nM. For the same molecule, the “ALK % of inhibition” value in assay [4] is 34%.

As to `N#Cc1ccnc(N2CCC(CC(=O)Nc3ccc4cc3CCc3cncc(c3)Nc3ncc(Cl)c(n3)N4)CC2)c1` [Example A178, N-[6-Chloro-2,4,8,18,22-pentaazatetracyclo[14.3.1.1(3,7).1(9,13)]docosa-1(20),3(22),4,6,9(21),10,12,16,18-nonaen-12-yl]-2-[1-(4-cyanopyridin-2-yl)piperidin-4-yl]acetamide tris(trifluoroacetate)], the IC50 in assay [1] was 68 nM; in assay [2], over 200 nM; in assay [3], over 200 nM; against TYK2 it was over 200 nM. The “ALK % of inhibition” value in assay [4] came out at 26%.

Regarding `N#Cc1ccc(N2CCC(CC(=O)Nc3ccc4cc3CCc3cncc(c3)Nc3ncc(Cl)c(n3)N4)CC2)nc1` [Example A179, N-[6-Chloro-2,4,8,18,22-pentaazatetracyclo[14.3.1.1(3,7).1(9,13)]docosa-1(20),3(22),4,6,9(21),10,12,16,18-nonaen-12-yl]-2-[1-(5-cyanopyridin-2-yl)piperidin-4-yl]acetamide tris(trifluoroacetate)], the IC50 was 18 nM in assay [1], 83 nM in assay [2], over 200 nM in assay [3] and over 200 nM against TYK2. In assay [4], the “ALK % of inhibition” value stood at 43%.

For `O=C(CC1CCN(c2cccc(Cl)n2)CC1)Nc1ccc2cc1CCc1cncc(c1)Nc1ncc(Cl)c(n1)N2` [Example A180, N-[6-Chloro-2,4,8,18,22-pentaazatetracyclo[14.3.1.1(3,7).1(9,13)]docosa-1(20),3(22),4,6,9(21),10,12,16,18-nonaen-12-yl]-2-[1-(6-chloropyridin-2-yl)piperidin-4-yl]acetamide tris(trifluoroacetate)], the IC50 in assay [1] is 13 nM; in assay [2] it was over 200 nM; in assay [3] it was over 200 nM; against TYK2, over 200 nM. For the same molecule, the “ALK % of inhibition” value in assay [4] is reported as 13%.

For `O=C(CC1CCN(c2cccc(F)n2)CC1)Nc1ccc2cc1CCc1cncc(c1)Nc1ncc(Cl)c(n1)N2` [Example A181, N-[6-Chloro-2,4,8,18,22-pentaazatetracyclo[14.3.1.1(3,7).1(9,13)]docosa-1(20),3(22),4,6,9(21),10,12,16,18-nonaen-12-yl]-2-[1-(6-fluoropyridin-2-yl)piperidin-4-yl]acetamide tris(trifluoroacetate)], the IC50 in assay [1] was 6.3 nM; in assay [2], 81 nM; in assay [3], over 200 nM; on TYK2, 89 nM. Further, in assay [4], the “ALK % of inhibition” value stood at 42%.

As for `Cc1nccc(N2CCC(CC(=O)Nc3ccc4cc3CCc3cncc(c3)Nc3ncc(Cl)c(n3)N4)CC2)n1` [Example A182, N-[6-Chloro-2,4,8,18,22-pentaazatetracyclo[14.3.1.1(3,7).1(9,13)]docosa-1(20),3(22),4,6,9(21),10,12,16,18-nonaen-12-yl]-2-[1-(2-methylpyrimidin-4-yl)piperidin-4-yl]acetamide tris(trifluoroacetate)], the IC50 in assay [1] was 48 nM; in assay [2], over 200 nM; in assay [3] it was over 200 nM; on TYK2, over 200 nM. Moreover, the “ALK % of inhibition” value in assay [4] is 32%.

For `O=C(CC1CCN(c2nncs2)CC1)Nc1ccc2cc1CCc1cccc(c1)Nc1ncc(Cl)c(n1)N2` [Example A183, N-[6-Chloro-2,4,8,22-tetraazatetracyclo[14.3.1.1(3,7).1(9,13)]docosa-1(20),3(22),4,6,9(21),10,12,16,18-nonaen-12-yl]-2-[1-(1,3,4-thiadiazol-2-yl)piperidin-4-yl]acetamide bis(trifluoroacetate)], the 50% inhibitory concentration (IC50) is 3.6 nM in assay [1], 22 nM in assay [2], over 200 nM in assay [3] and 30 nM against TYK2. Also, in assay [4], the “ALK % of inhibition” value turned out to be 40%.

Turning to `O=C(CC1CCN(C(=O)c2cccnc2)CC1)Nc1ccc2cc1CCc1cccc(c1)Nc1ncc(Cl)c(n1)N2` [Example A184, N-[6-Chloro-2,4,8,22-tetraazatetracyclo[14.3.1.1(3,7).1(9,13)]docosa-1(20),3(22),4,6,9(21),10,12,16,18-nonaen-12-yl]-2-[1-(pyridin-3-ylcarbonyl)piperidin-4-yl]acetamide bis(trifluoroacetate)], the IC50 in assay [1] is 43 nM; in assay [2], 79 nM; in assay [3] it was over 200 nM; on TYK2 it was over 200 nM. Besides, the “ALK % of inhibition” value in assay [4] is listed as 29%.
